Reference: US20230250392A1, “MEDIA AND METHODS FOR ENHANCING THE SURVIVAL AND PROLIFERATION OF STEM CELLS” (STEMCELL TECHNOLOGIES CANADA INC., priority 2017, published 2023)

Tests used:
Type in all cases: cell-based, human
H1, WLS-1C, and H9 hPSCs = test: Example 13: cloning efficiency with detrimental fatty acids loaded onto a BSA sample; conditions: 300 μg/g loaded onto a specific BSA sample
Experimental: In the experiment shown in FIG. 13, 300 μg/g of either arachidonic acid or α-linolenic acid were loaded onto a specific BSA sample and added to a culture comprising H1, WLS-1C, and H9 hPSCs.

H1 and WLS-1C hPSCs = test: Example 12: cloning efficiency with individual free fatty acids in the presence of a carrier; conditions: 600 μg free fatty acid per gram of carrier spiked into mTeSR1 plus 10 μM Y-27632
Experimental: 12-well culture plates were coated with 0.5 mL of cloning matrix or extracellular matrix (1:25 dilution in […] Dilution Buffer) and placed at room temperature for 1 hour. The matrix was then aspirated and 1 mL of media (mTeSRTM1 or TeSRTM-E8TM supplemented with either 10 μM Y27632 or media comprising lipid-enriched albumin, GABA, pipecolic acid, lithium chloride, FGF, TGFβ and Y-27632 (hereafter termed cloning supplement)) was added to each well and the plate was placed at 37° C. for 1 hour. hPSC lines were dissociated to single cells and seeded into the pre-warmed plates at 25 cells/cm^2 and placed at 37° C. for two days. The cells were then fed with fresh media (mTeSRTM1 or TeSRTM-E8TM supplemented with either 10 μM Y-27632 or cloning supplement) and placed at 37° C. for two days. On day four the cells were then fed with 1 mL of mTeSRTM1 or TeSRTM-E8TM without additives and fed daily until day seven. Cells were then fixed using 4% paraformaldehyde and stained for alkaline phosphatase. Undifferentiated colonies were then counted and cloning efficiency was determined using the following calculation: (Number of undifferentiated colonies at day seven (per well)/Number of cells seeded at day zero (per well))×100. (Error bars represent standard deviation from three biological replicates). In this experiment, 600 μg of the shown free fatty acids were spiked into culture medium (mTeSRTM1 plus 10 μM Y-27632) per gram of carrier also spiked into the culture medium. Cloning efficiencies were calculated as described in Example 1, for example.

[1] = test system: WLS-1C, H1 and STiPS-F016 cells; test: Example 8: cloning efficiency with lipid poor albumin loaded with one, two or three fatty acids; conditions: for cloning efficiency in comparison to the 3 fatty acid-loaded albumin: H1, WLS-1C, STiPS-F016, fatty acid loaded on lipid poor albumin at 600 μg per gram, final 6 ng/mL
Experimental: In particular, each of the one or more fatty acids was incubated with albumin at a concentration of 600 μg of each fatty acid per gram of albumin. The product of such incubation was subsequently added to the culture medium at a final concentration of 6 ng/mL.

WLS-1C and H1 cells = test: Example 11: cloning efficiency with albumins of different suppliers with or without two free fatty acids; conditions: for cloning efficiency of albumin without the additional two free fatty acids: compared among suppliers' albumins; for cloning efficiency when albumin is provided along with two free fatty acids: versus the same albumin without added fatty acids

Compound: CCCCC/C=C\C/C=C\C/C=C\C/C=C\CCCC(=O)O [arachidonic acid]
- cloning efficiency of the tested BSA sample (H1, WLS-1C, and H9 hPSCs): decreased the cloning efficiency
- effect on survival and proliferation (cloning efficiency) (H1 and WLS-1C hPSCs): detrimental

Compound: CC(C)CCC[C@@H](C)[C@H]1CC[C@H]2[C@@H]3CC=C4C[C@@H](O)CC[C@]4(C)[C@H]3CC[C@]12C [cholesterol]
- effect on survival and proliferation (cloning efficiency) (H1 and WLS-1C hPSCs): helpful in enhancing the survival and proliferation

Compound: CCCCC/C=C\C/C=C\CCCCCCCC(=O)O [linoleic acid]
- cloning efficiency relative to control and oleic and/or palmitic acid ([1]; WLS-1C and H1, only this fatty acid loaded on albumin at 600 μg per gram): reduce cloning efficiency

Compound: CCCCCCCCCCCCCC(=O)O [myristic acid]
- effect on survival and proliferation (cloning efficiency) (H1 and WLS-1C hPSCs): helpful in enhancing the survival and proliferation

Compound: CCCCCCCC/C=C\CCCCCCCC(=O)O [oleic acid]
- effect on survival and proliferation (cloning efficiency) (H1 and WLS-1C hPSCs): helpful in enhancing the survival and proliferation
- cloning efficiency in comparison to the 3 fatty acid-loaded albumin [1]: comparable cloning efficiencies

Compound: CCCCCCCCCCCCCCCC(=O)O [palmitic acid]
- effect on survival and proliferation (cloning efficiency) (H1 and WLS-1C hPSCs): helpful in enhancing the survival and proliferation
- cloning efficiency in comparison to the 3 fatty acid-loaded albumin [1]: comparable cloning efficiencies

Compound: CCCCCCCCCCCCCCCCCC(=O)O [stearic acid]
- effect on survival and proliferation (cloning efficiency) (H1 and WLS-1C hPSCs): helpful in enhancing the survival and proliferation

Compound: CC/C=C\C/C=C\C/C=C\CCCCCCCC(=O)O [α-linolenic acid]
- cloning efficiency of the tested BSA sample (H1, WLS-1C, and H9 hPSCs): decreased the cloning efficiency
- effect on survival and proliferation (cloning efficiency) (H1 and WLS-1C hPSCs): detrimental

Compound: A1: BSA of Supplier A lot 1, already comprising 3000-7000 ug/g overall fatty acid
- cloning efficiency of albumin without the additional two free fatty acids (WLS-1C and H1 cells): lowest cloning efficiencies
- cloning efficiency when albumin is provided along with two free fatty acids (WLS-1C and H1 cells): not enhanced

Compound: A2: BSA of Supplier A lot 2, already comprising 3000-7000 ug/g overall fatty acid
- cloning efficiency of albumin without the additional two free fatty acids (WLS-1C and H1 cells): lowest cloning efficiencies
- cloning efficiency when albumin is provided along with two free fatty acids (WLS-1C and H1 cells): not enhanced
